The record followed here is publication PMC8779255, “Determining the Anticancer Activity of Sphingosine Kinase Inhibitors Containing Heteroatoms in Their Tail Structure” (Pharmaceutics, 2022).

Like-named read-outs stand apart in the source and are kept apart here.

Data set [1] concerns the target CYP2D6 (Homo sapiens, UniProt P10635). The data set can be described thus: Inhibition of CYP enzymes activity, human liver microsomes. To be noted: human liver microsomes 0.25 mg/mL, 10 μM, dextromethorphan substrate. (In general: Liver microsomes are vesicles of endoplasmic reticulum, rich in cytochrome P450 enzymes.)
Description: Afterward, to terminate the reaction, an acetonitrile solution containing an internal standard (terfenadine) was added, centrifuged for 5 min (14,000 rpm, 4 °C), and the supernatant was injected into the LC-MS/MS system. By simultaneously analyzing metabolites, the ability of the six compounds to inhibit drug metabolism enzymes was evaluated.
(§3) Metabolites of each CYP coenzyme indicator drug generated through the above reaction were analyzed using the Shimadzu Nexera XR system and TSQ vantage (Thermo). The HPLC column was a Kinetex C18 column (2.1 × 100 mm^2, 2.6 μm particle size; Phenomenex, Torrance, CA, USA), and the mobile phase was distilled water (A) containing 0.1% formic acid and acetonitrile (B) containing 0.1% formic acid. […] The generated metabolites were quantified using MRM (Multiple Reaction Monitoring) quantification modes, and data were analyzed using Xcalibur (version 1.6.1).
The subject of data set [2] is S1P in HCT116 cells. The data set is described as follows: S1P ELISA of cell lysate. In kind it is cell-based, human. On the procedure:
(§1) The cellular levels of S1P, sphingosine, and ceramide were detected using an ELISA assay kit (MyBioSource, Inc., San Diego, CA, USA) according to the manufacturer’s instruction. For S1P ELISA, 100 µL cell lysates or standards were added in pre-coated ELISA wells, incubated for 90 min at 37 °C, and treated with 1x biotinylated anti S1P antibody for 1 h. Following treatment of HRP conjugated secondary antibody, the substrate was added and allowed to change the color for 15 min; then, the stop solution was added and absorbance was measured at 450 nm using a Multiskan GO (Thermo Scientific, Waltham, MA, USA) microplate spectrophotometer. […] A stop solution (50 µL) was added to each well, and optical density was measured at 450 nm using a microplate reader. […] After incubation, 50 µL substrate A and B was added to the plate and incubated at 37 °C for 20 min; a stop solution (50 µL) was added to each well and optical density was determined at 450 nm using a microplate reader. The concentration of S1P, sphingosine, and ceramide were calculated as ng/mL using respective standard curves constructed by Skanlt microplate reader software 5.0 (Thermo Scientific, Waltham, MA, USA).

Data set [3] is described as follows: In vitro metabolic stability in liver microsomes. The data set is classed as in vitro ADME, rat.
In data set [4] the target is T1, SK1 enzyme (Homo sapiens, UniProt Q9NYA1).
T1 construct: purchased Thermo Fisher Scientific
T1 sequence (Q9NYA1 whole entry): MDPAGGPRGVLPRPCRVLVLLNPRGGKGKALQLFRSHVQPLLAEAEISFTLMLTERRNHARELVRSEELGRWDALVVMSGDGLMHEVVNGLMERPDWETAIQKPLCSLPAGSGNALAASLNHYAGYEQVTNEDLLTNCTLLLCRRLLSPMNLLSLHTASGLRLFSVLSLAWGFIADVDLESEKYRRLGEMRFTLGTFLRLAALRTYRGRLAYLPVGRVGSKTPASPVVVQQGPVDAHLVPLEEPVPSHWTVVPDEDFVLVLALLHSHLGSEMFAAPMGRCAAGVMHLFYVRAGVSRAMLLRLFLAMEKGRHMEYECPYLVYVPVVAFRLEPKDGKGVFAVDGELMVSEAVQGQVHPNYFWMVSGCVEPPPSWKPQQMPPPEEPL
The data set is described as follows: SK activity assay (Adapta screening system). The data set is classed as biochemical. Conditions: final concentration of 20 μM. On the procedure:
The effect of compounds in sphingosine kinase activity was examined using the […] screening system (Thermo Fisher Scientific System, Waltham, MA, USA). The kinase inhibition ability of compounds 1-11 along with RB005 was measured with final concentration of 20 μM. […] The data were presented as percentage inhibition of SK enzyme by individual compounds.

Data set [5] concerns sphingosine in HCT116 cells. The data set is described as follows: Sphingosine ELISA of cell lysate. The data set is classed as cell-based, human. Conditions: 24 h, vs nontreated control. The procedure:
as §1

The test system of data set [6] is SK1 in HCT116 cells. The data set can be described thus: Western blotting of SK1 protein expression. The data set is classed as cell-based, human. Conditions: HCT116, 10 and 20 µM, 24 h, vs control cells. The procedure:
The cell lysate was prepared after successive treatment using mammalian protein extraction buffer (Organic buffer + 10 mM NaCl + detergent pH 7.5) mixed with 1% protease/phosphatase inhibitor cocktail; protein was quantified with BCA assay, boiled at 95 °C for 10 min by adding sample loading buffer, separated using SDS-PAGE, and transferred into methanol-activated PVDF membrane. Primary antibodies were probed overnight in PVDF membrane at 4 °C and […] with subsequent HRP anti-mouse and anti-rabbit secondary antibodies at room temperature. Then, membranes were washed with TBST buffer, and images were detected by Amersham Imager 680 (GE Healthcare; Leiden, WZ, The Netherlands) using ECL solution. Band intensities were analyzed and quantified using Image J software (version 1.53i).
Background: In western blotting, separated proteins are transferred to a membrane and probed.

Data set [7] deals with HCT116 cells. The data set can be described thus: MTT cell viability assay. The data set is classed as cell-based, human. To be noted: for IC50: Homo sapiens, HCT-116, read-out: relative IC50 (cell viability). On the procedure:
(§2) The HT29 and HCT116 cells (human colon cancer), AGS (human gastric cancer), and MIA PaCa-2 cells (human pancreatic cancer) were purchased from Korean Cell Line Bank (Seoul, Korea). Cancer cells were maintained in RPMI (HT29 and AGS) and DMEM (HCT116 and MIA PaCa-2) culture media supplemented with 10% fetal bovine serum (FBS) and 100 U/mL penicillin and streptomycin at 37 °C in a 95% humidified incubator containing 5% CO2. The cytotoxic effect of the compounds was assessed using the MTT cell viability assay. Briefly, 3 × 10^3 cells/well were grown in 96-well plates for 24 h. After treatment with desired concentration of respective compounds for 24 h or 48 h, the EZ-CYTOTOX (10 µM) reagent was added in each well and incubated for 90 min. The absorbance was measured at 450 nm wavelength using Skanlt software 5.0 (Thermo Scientific, Waltham, MA, USA) installed on a Multiskan GO (Thermo Scientific, Waltham, MA, USA) spectrophotometer. Each experiment was independently repeated three times (n = 12).
(In general: Tetrazolium dyes change colour on reduction, which living cells bring about.)

Data set [8] concerns HT29 cells. The data set is described as follows: MTT cell viability assay. The data set is classed as cell-based, human. To be noted: for IC50: Homo sapiens, HT-29, read-out: relative IC50 (cell viability). The procedure: as §2
Data set [9] has as its target CYP2C19 (Homo sapiens, UniProt P33261). The data set is described as follows: Inhibition of CYP enzymes activity, human liver microsomes. To be noted: human liver microsomes 0.25 mg/mL, 10 μM, S-mephenytoin substrate.
Description: (§4) By simultaneously analyzing metabolites, the ability of the six compounds to inhibit drug metabolism enzymes was evaluated.
as §3
In data set [10] the target is T2, CYP3A4 (Homo sapiens, UniProt P08684).
T2 construct: Human liver microsomes (0.25 mg/mL); from tissue; host or cells: human liver microsomes
T2 sequence (P08684 whole entry): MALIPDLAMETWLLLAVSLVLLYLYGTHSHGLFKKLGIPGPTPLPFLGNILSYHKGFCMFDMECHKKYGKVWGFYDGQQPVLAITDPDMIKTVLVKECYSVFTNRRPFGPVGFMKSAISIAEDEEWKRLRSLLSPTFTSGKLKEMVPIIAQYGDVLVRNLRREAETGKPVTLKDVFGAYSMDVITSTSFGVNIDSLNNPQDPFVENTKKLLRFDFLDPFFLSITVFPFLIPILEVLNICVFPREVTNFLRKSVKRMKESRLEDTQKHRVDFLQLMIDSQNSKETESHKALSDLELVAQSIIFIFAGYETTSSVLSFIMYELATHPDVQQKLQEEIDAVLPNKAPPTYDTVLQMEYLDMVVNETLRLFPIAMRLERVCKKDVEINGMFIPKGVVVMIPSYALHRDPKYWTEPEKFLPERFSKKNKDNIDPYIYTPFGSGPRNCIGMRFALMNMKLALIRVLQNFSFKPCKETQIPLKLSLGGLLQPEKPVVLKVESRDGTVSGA
Described as above. In kind it is in vitro ADME. To be noted: human liver microsomes 0.25 mg/mL, 10 μM, midazolam substrate.
Description: as §4, §3

Data set [11] deals with HCT116 cells. The data set is described as follows: Annexin V-FITC/PI staining, flow cytometry. In kind it is cell-based, human. To be noted: HCT116, 10 and/or 20 µM, 24 h. On the procedure: After treating HT29 and HCT116 cells with compounds 10, 11, 13 and FTY720 according to the manufacturer’s instruction, the annexin V and PI staining technique was employed to determine apoptosis in the cells. Briefly, cells (2.5 × 10^5 cells/well) were seeded in 12-well plates and treated with 10 and/or 20 µM of compounds for 24 h. Cells were collected using trypsin-EDTA and stained with annexin V-FITC dye for 15 min at room temperature, followed by PI staining for 20 min and analyzed by flow cytometer (MACSQuant Analyzer 10; Miltenyi Biotec, Bergisch Gladbach, Germany). The data was analyzed using MACSQuantify^TM version 2.8 software (Miltenyi Biotec, Bergisch Gladbach, Germany) and presented as early apoptosis, late apoptosis, or combined apoptosis percentage. Each experiment was repeated three times independently (n = 6).

The term inhibition denotes the drop in the measured response relative to a control, in per cent. A lower inhibition goes with a response near the control. The term IC50 denotes the concentration that gives 50% inhibition.

CYP2C19, sequence (P33261 whole entry): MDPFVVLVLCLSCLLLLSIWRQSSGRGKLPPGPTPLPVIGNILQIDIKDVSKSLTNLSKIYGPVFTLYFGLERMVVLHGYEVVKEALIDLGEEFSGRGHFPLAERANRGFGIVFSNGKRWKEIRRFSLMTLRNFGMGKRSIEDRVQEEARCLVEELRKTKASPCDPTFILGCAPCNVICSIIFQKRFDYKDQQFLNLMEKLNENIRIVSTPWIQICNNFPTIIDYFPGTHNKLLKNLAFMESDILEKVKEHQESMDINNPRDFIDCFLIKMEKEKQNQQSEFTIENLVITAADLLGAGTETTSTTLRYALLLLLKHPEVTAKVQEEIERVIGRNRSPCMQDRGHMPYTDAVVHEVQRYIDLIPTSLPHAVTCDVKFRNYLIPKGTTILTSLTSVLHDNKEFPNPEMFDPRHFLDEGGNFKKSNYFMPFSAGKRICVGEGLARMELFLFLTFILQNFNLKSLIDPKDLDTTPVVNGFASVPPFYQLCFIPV
CYP2D6, sequence (P10635 whole entry): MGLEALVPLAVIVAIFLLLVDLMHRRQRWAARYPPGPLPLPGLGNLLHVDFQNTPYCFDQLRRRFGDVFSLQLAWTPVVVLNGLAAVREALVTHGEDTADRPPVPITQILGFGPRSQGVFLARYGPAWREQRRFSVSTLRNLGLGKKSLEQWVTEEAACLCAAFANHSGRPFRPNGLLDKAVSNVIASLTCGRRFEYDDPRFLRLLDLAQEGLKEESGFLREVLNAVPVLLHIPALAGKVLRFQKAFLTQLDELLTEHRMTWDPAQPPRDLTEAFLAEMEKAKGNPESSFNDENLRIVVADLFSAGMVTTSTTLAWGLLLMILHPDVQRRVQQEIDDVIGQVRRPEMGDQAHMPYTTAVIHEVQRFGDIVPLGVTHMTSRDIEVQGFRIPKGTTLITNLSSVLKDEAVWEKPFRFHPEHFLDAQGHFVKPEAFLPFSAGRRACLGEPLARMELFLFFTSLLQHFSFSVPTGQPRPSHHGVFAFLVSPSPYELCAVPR

Take `CCCCCCCOc1ccc(CCN2CCN(CCO)CC2)cc1` [Compound 10, 2-(4-(4-(Heptyloxy)phenethyl)piperazin-1-yl)ethanol]: in data set [1], the “CYP2D6 activity (% of control activity)” value is listed as 87.4%. In addition, the S1P level decrease in [2] worked out at 42%. Moreover, the S1P level result in data set [2] (HCT116, 10 and 20 µM, 24 h, vs nontreated control) is reported as “significantly reduces”. Also, in data set [3] (% remaining after 30 min, NADPH), the “liver microsomal stability, Rat (%)” value turned out to be 10.2%. The “liver microsomal stability (in words)” value in data set [3] (rat) was “unstable”. For the same compound, the inhibition at 20 µM in data set [4] came to 20%. Moreover, the sphingosine level increase in data set [5] (HCT116, 10 µM) turned out to be 1.42 fold; in data set [5] (HCT116, 20 µM), 1.74 fold. Further, the “SK1 protein expression level” value in [6] is “does not affect”. Besides, the “cytotoxic effect, comparison” value in [7] (HCT116, 10, 20 and 40 µM, Supplementary Figure S1C) is “higher than compounds 11, 13, and PF-543”. For the same compound, the “cytotoxic effect (cell viability)” value in data set [7] (HCT116, 20 and 40 µM, 24 h, Figure 2B) is “significant cytotoxic effects in both 20 and 40 µM concentrations”; in data set [8] (HT29, 20 and 40 µM, 24 h, Figure 2A), “more cytotoxic than RB005 and 5-FU”. In addition, the 50% inhibitory concentration (IC50) in data set [7] (HCT116, 24 h treatment) turned out to be 10.9 µM; in [7] (HCT116, 48 h treatment, 2.5–40 µM) it was 8.69 µM; in data set [8] (HT29, 24 h treatment), 10.5 µM; in data set [8] (HT29, 48 h treatment, 2.5–40 µM), 6.22 µM. The “CYP2C19 activity (% of control activity)” value in data set [9] came out at 96.5%. Moreover, the “CYP3A4 activity (% of control activity)” value in data set [10] was >100%. For the same compound, in [11], the “apoptosis (annexin V assay)” value was “induced apoptosis”.
